{"source": "ChEMBL document CHEMBL5338704", "about": "“Discovery of novel phenylhydrazone-based oxindole-thiolazoles as potent antibacterial agents toward Pseudomonas aeruginosa” (Eur J Med Chem, 2022)", "key": {"Pseudomonas aeruginosa [1]": {"test_system": "Pseudomonas aeruginosa", "assay": "Antibacterial activity against Pseudomonas aeruginosa ATCC 27853 assessed as inhibition of bacterial growth at 4 times MIC measured upto 14 hrs", "type": "functional, organism-based"}, "Klebsiella pneumoniae": {"test_system": "Klebsiella pneumoniae", "assay": "Antibacterial activity against Klebsiella pneumoniae assessed as inhibition of bacterial growth by micro-broth dilution assay", "type": "functional"}, "Acinetobacter baumannii": {"test_system": "Acinetobacter baumannii", "assay": "Antibacterial activity against Acinetobacter baumannii assessed as inhibition of bacterial growth by micro-broth dilution assay", "type": "functional"}, "Staphylococcus aureus [2]": {"test_system": "Staphylococcus aureus", "assay": "Antibacterial activity against Staphylococcus aureus ATCC 25923 assessed as inhibition of bacterial growth by micro-broth dilution assay", "type": "functional"}, "Escherichia coli [3]": {"test_system": "Escherichia coli", "assay": "Antibacterial activity against Escherichia coli ATCC 25922 assessed as inhibition of bacterial growth by micro-broth dilution assay", "type": "functional"}, "Enterococcus faecalis": {"test_system": "Enterococcus faecalis", "assay": "Antibacterial activity against Enterococcus faecalis assessed as inhibition of bacterial growth by micro-broth dilution assay", "type": "functional"}, "Pseudomonas aeruginosa [4]": {"test_system": "Pseudomonas aeruginosa", "assay": "Antibacterial activity against Pseudomonas aeruginosa ATCC 27853 assessed as inhibition of bacterial growth measured after 6 hrs", "type": "functional, organism-based"}, "Escherichia coli [5]": {"test_system": "Escherichia coli", "assay": "Antibacterial activity against Escherichia coli assessed as inhibition of bacterial growth by micro-broth dilution assay", "type": "functional"}, "Pseudomonas aeruginosa [6]": {"test_system": "Pseudomonas aeruginosa", "assay": "Antibacterial activity against Pseudomonas aeruginosa ATCC 27853 assessed as inhibition of bacterial growth by micro-broth dilution assay", "type": "functional"}, "Staphylococcus aureus [7]": {"test_system": "Staphylococcus aureus", "assay": "Antibacterial activity against Staphylococcus aureus assessed as inhibition of bacterial growth by micro-broth dilution assay", "type": "functional"}, "Pseudomonas aeruginosa [8]": {"test_system": "Pseudomonas aeruginosa", "assay": "Antibacterial activity against Pseudomonas aeruginosa assessed as inhibition of bacterial growth by micro-broth dilution assay", "type": "functional"}, "Staphylococcus aureus [9]": {"test_system": "Staphylococcus aureus", "assay": "Antibacterial activity against Staphylococcus aureus ATCC 29213 assessed as inhibition of bacterial growth by micro-broth dilution assay", "type": "functional"}, "Staphylococcus aureus [10]": {"test_system": "Staphylococcus aureus", "assay": "Antibacterial activity against methicillin resistant Staphylococcus aureus assessed as inhibition of bacterial growth by micro-broth dilution assay", "type": "functional"}, "Pseudomonas aeruginosa [11]": {"test_system": "Pseudomonas aeruginosa", "assay": "Antibacterial activity against Pseudomonas aeruginosa assessed as […] inactivation at 0.5 to 8 times MIC by alamar blue staining based analysis", "type": "functional, organism-based"}, "Pseudomonas aeruginosa [12]": {"test_system": "Pseudomonas aeruginosa", "assay": "Induction of resistance development in Pseudomonas aeruginosa ATCC 27853 treated over 30 serial passages", "type": "functional, organism-based"}, "Pseudomonas aeruginosa [13]": {"test_system": "Pseudomonas aeruginosa", "assay": "Induction of oxidative stress in Pseudomonas aeruginosa assessed as decrease in GSH activity at 0.5 to 8 times MIC by Ellman's assay", "type": "functional, organism-based"}, "Cell membrane [14]": {"test_system": "Cell membrane", "assay": "Induction of outer membrane permeabilization in Pseudomonas aeruginosa assessed as increase in fluorescence intensity by NPN-dye based fluorescence analysis", "type": "subcellular", "settings": "dose 0.5-8 µg/ml"}, "Pseudomonas aeruginosa [15]": {"test_system": "Pseudomonas aeruginosa", "assay": "Antibacterial activity against Pseudomonas aeruginosa assessed as reduction in LDH activity at 0.5 to 8 times MIC", "type": "functional, organism-based"}, "Cell membrane [16]": {"test_system": "Cell membrane", "assay": "Induction of cytoplasmic membrane depolarization in Pseudomonas aeruginosa assessed as increase in fluorescence intensity at 0.5 to 4 times MIC by DiSC35 dye based fluorescence analysis", "type": "subcellular", "settings": "time 30.0 min, TDE = time-dependent effect"}, "Pseudomonas aeruginosa [17]": {"test_system": "Pseudomonas aeruginosa", "assay": "Inhibition of biofilm formation in Pseudomonas aeruginosa at 0.5 to 8 microg/ml by crystal violet staining based analysis", "type": "functional", "settings": "dose 0.5-8 µg/ml; at 0.5 to 8 µg/mL"}, "Cell membrane [18]": {"test_system": "Cell membrane", "assay": "Induction of cell membrane damage in Pseudomonas aeruginosa assessed as increase in nucleic acid leakage at 0.5 to 8 times MIC", "type": "subcellular"}, "Pseudomonas aeruginosa [19]": {"test_system": "Pseudomonas aeruginosa", "assay": "Inhibition of biofilm formation in Pseudomonas aeruginosa assessed as removal of mature biofilm by crystal violet staining based analysis", "type": "functional, organism-based", "settings": "dose 0.5-8 µg/ml"}, "Cell membrane [20]": {"test_system": "Cell membrane", "assay": "Induction of outer membrane permeabilization in Pseudomonas aeruginosa assessed as increase in fluorescence intensity at 0.5 to 8 microg/ml by NPN-dye based fluorescence analysis", "settings": "dose 0.5-8 µg/ml"}, "Pseudomonas aeruginosa [21]": {"test_system": "Pseudomonas aeruginosa", "assay": "Induction of intracellular ROS accumulation in Pseudomonas aeruginosa assessed increase in fluorescence intensity", "type": "functional, organism-based"}, "Pseudomonas aeruginosa [22]": {"test_system": "Pseudomonas aeruginosa", "assay": "Antibacterial activity against Pseudomonas aeruginosa ATCC 27853 assessed as inhibition of bacterial growth at 1 times MIC measured upto 14 hrs", "type": "functional, organism-based"}, "Pseudomonas aeruginosa [23]": {"test_system": "Pseudomonas aeruginosa", "assay": "Antibacterial activity against Pseudomonas aeruginosa assessed as reduction in LDH activity at 8 times MIC", "type": "functional", "set-up": "scale not given: the % may be the effect or the level left"}, "Pseudomonas aeruginosa [24]": {"test_system": "Pseudomonas aeruginosa", "assay": "Induction of resistance development in Pseudomonas aeruginosa ATCC 27853 assessed as fold increase in MIC treated over 30 serial passages", "type": "functional"}, "Cell membrane [25]": {"test_system": "Cell membrane", "assay": "Induction of cytoplasmic membrane depolarization in Pseudomonas aeruginosa assessed as increase in fluorescence intensity MIC by DiSC35 dye based fluorescence analysis", "type": "subcellular"}, "DNA [26]": {"test_system": "DNA", "assay": "Binding affinity to Pseudomonas aeruginosa DNA assessed as reduction in acridine orange-DNA complex formation by competitive binding assay", "type": "nucleic-acid assay"}, "Cell membrane [27]": {"test_system": "Cell membrane", "assay": "Induction of inner membrane damage in Pseudomonas aeruginosa assessed as increase in red fluorescence cells at 0.5 to 8 times MIC incubated for 6 hrs by Calcein AM dye based fluorescence based assay", "type": "subcellular"}, "[28]": {"assay": "Selectivity index, ratio of HC50 for hemolytic activity in RBC (unknown origin) assessed as hemolysis to MIC for antibacterial activity against Pseudomonas aeruginosa assessed as inhibition of bacterial growth by micro-broth dilution assay", "type": "toxicity", "settings": "red blood cells (erythrocytes)"}, "Cell membrane [29]": {"test_system": "Cell membrane", "assay": "Induction of cell membrane damage in Pseudomonas aeruginosa assessed as increase in protein leakage", "type": "subcellular"}, "Pseudomonas aeruginosa [30]": {"test_system": "Pseudomonas aeruginosa", "assay": "Inhibition of biofilm formation in Pseudomonas aeruginosa by crystal violet staining based analysis", "type": "functional, organism-based", "settings": "dose 0.5-8 µg/ml"}, "Pseudomonas aeruginosa [31]": {"test_system": "Pseudomonas aeruginosa", "assay": "Potency index, ratio of norfloxacin MIC to test compound MIC for antibacterial activity against Pseudomonas aeruginosa assessed as inhibition of bacterial growth by micro-broth dilution assay", "type": "functional"}, "DNA [32]": {"test_system": "DNA", "assay": "Binding affinity to Pseudomonas aeruginosa DNA", "type": "nucleic-acid assay"}, "Cell membrane [33]": {"test_system": "Cell membrane", "assay": "Induction of inner membrane damage in Pseudomonas aeruginosa incubated for 6 hrs by Calcein AM dye based fluorescence based assay", "type": "subcellular"}, "Cell membrane [34]": {"test_system": "Cell membrane", "assay": "Induction of inner membrane damage in Pseudomonas aeruginosa assessed as decrease in green fluorescence cells at 0.5 to 8 times MIC incubated for 6 hrs by Calcein AM dye based fluorescence based assay", "type": "subcellular"}, "[35]": {"assay": "Hemolytic activity in RBC (unknown origin) assessed as hemolysis", "type": "toxicity, cell-based, Erythrocyte", "settings": "red blood cells (erythrocytes)"}}, "note": "The source made the active and inactive calls. The calls are words filed in the database; no cut-off is given here."}
{"smiles": "CCn1cc(C(=O)O)c(=O)c2cc(F)c(N3CCNCC3)cc21", "note": "[NORFLOXACIN]", "values": [{"measurement": "Activity", "setting": "Pseudomonas aeruginosa [1]", "value": "Active"}, {"measurement": "MIC", "setting": "Klebsiella pneumoniae", "value": 2, "unit": "µg/mL"}, {"measurement": "MIC", "setting": "Acinetobacter baumannii", "value": 4, "unit": "µg/mL"}, {"measurement": "MIC", "setting": "Staphylococcus aureus [2]", "value": 4, "unit": "µg/mL"}, {"measurement": "MIC", "setting": "Escherichia coli [3]", "value": 2, "unit": "µg/mL"}, {"measurement": "MIC", "setting": "Enterococcus faecalis", "value": 4, "unit": "µg/mL"}, {"measurement": "Activity", "setting": "Pseudomonas aeruginosa [4]", "value": "Active"}, {"measurement": "MIC", "setting": "Escherichia coli [5]", "value": 8, "unit": "µg/mL"}, {"measurement": "MIC", "setting": "Pseudomonas aeruginosa [6]", "value": 4, "unit": "µg/mL"}, {"measurement": "MIC", "setting": "Staphylococcus aureus [7]", "value": 2, "unit": "µg/mL"}, {"measurement": "MIC", "setting": "Pseudomonas aeruginosa [8]", "value": 8, "unit": "µg/mL"}, {"measurement": "MIC", "setting": "Staphylococcus aureus [9]", "value": 2, "unit": "µg/mL"}, {"measurement": "MIC", "setting": "Staphylococcus aureus [10]", "value": 8, "unit": "µg/mL"}]}
{"smiles": "Cn1ccnc1SCC(O)CN1C(=O)/C(=N\\Nc2ccc(C(=O)O)cc2)c2ccccc21", "note": "(stereo not given)", "values": [{"measurement": "Activity", "setting": "Pseudomonas aeruginosa [11]", "value": "Active"}, {"measurement": "Activity", "setting": "Pseudomonas aeruginosa [12]", "value": "Active"}, {"measurement": "Activity", "setting": "Pseudomonas aeruginosa [13]", "value": "Active"}, {"measurement": "MIC", "setting": "Klebsiella pneumoniae", "value": 2, "unit": "µg/mL"}, {"measurement": "Activity", "setting": "Cell membrane [14]", "value": "Dose-Dependent Effect"}, {"measurement": "Activity", "setting": "Pseudomonas aeruginosa [15]", "value": "Active"}, {"measurement": "MIC", "setting": "Acinetobacter baumannii", "value": 32, "unit": "µg/mL"}, {"measurement": "MIC", "setting": "Staphylococcus aureus [2]", "value": 8, "unit": "µg/mL"}, {"measurement": "Activity", "setting": "Cell membrane [16]", "value": "Tde"}, {"measurement": "inhibition (INH)", "setting": "Pseudomonas aeruginosa [17]", "value": 15, "unit": "%"}, {"measurement": "MIC", "setting": "Escherichia coli [3]", "value": 4, "unit": "µg/mL"}, {"measurement": "MIC", "setting": "Enterococcus faecalis", "value": 4, "unit": "µg/mL"}, {"measurement": "Activity", "setting": "Pseudomonas aeruginosa [4]", "value": "Active"}, {"measurement": "Activity", "setting": "Cell membrane [18]", "value": "Active"}, {"measurement": "MIC", "setting": "Escherichia coli [5]", "value": 32, "unit": "µg/mL"}, {"measurement": "inhibition", "setting": "Pseudomonas aeruginosa [19]", "value": "Dose-Dependent Effect"}, {"measurement": "MIC", "setting": "Pseudomonas aeruginosa [6]", "value": 8, "unit": "µg/mL"}, {"measurement": "Activity", "setting": "Cell membrane [20]", "value": "Active"}, {"measurement": "Activity", "setting": "Pseudomonas aeruginosa [21]", "value": "Dose-Dependent Effect"}, {"measurement": "Activity", "setting": "Pseudomonas aeruginosa [22]", "value": "Active"}, {"measurement": "Activity", "setting": "Pseudomonas aeruginosa [23]", "value": "<15", "unit": "%"}, {"measurement": "fold change (FC)", "setting": "Pseudomonas aeruginosa [24]", "value": 32}, {"measurement": "Activity", "setting": "Cell membrane [25]", "value": "Dose-Dependent Effect"}, {"measurement": "MIC", "setting": "Staphylococcus aureus [7]", "value": 8, "unit": "µg/mL"}, {"measurement": "Activity", "setting": "DNA [26]", "value": "Active"}, {"measurement": "MIC", "setting": "Pseudomonas aeruginosa [8]", "value": 1, "unit": "µg/mL"}, {"measurement": "Activity", "setting": "Cell membrane [27]", "value": "Active"}, {"measurement": "selectivity ratio", "setting": "[28]", "value": "> 512"}, {"measurement": "Activity", "setting": "Cell membrane [29]", "value": "Dose-Dependent Effect"}, {"measurement": "inhibition", "setting": "Pseudomonas aeruginosa [30]", "value": "Dose-Dependent Effect"}, {"measurement": "MIC", "setting": "Staphylococcus aureus [9]", "value": 16, "unit": "µg/mL"}, {"measurement": "MIC", "setting": "Staphylococcus aureus [10]", "value": 8, "unit": "µg/mL"}, {"measurement": "Ratio", "setting": "Pseudomonas aeruginosa [31]", "value": 8}, {"measurement": "Activity", "setting": "DNA [32]", "value": "Active"}, {"measurement": "Activity", "setting": "Cell membrane [33]", "value": "Dose-Dependent Effect"}, {"measurement": "Activity", "setting": "Cell membrane [34]", "value": "Active"}, {"measurement": "HC50", "setting": "[35]", "value": "> 512", "unit": "µg/mL"}]}
